Among the data in patent US8026362B2, “Non-nucleoside reverse transcriptase inhibitors” (Roche Palo Alto LLC, priority 2007, dated 2011) are IC50 and melting point values, retold here.

One data set has as its target HIV-1 RT (Human immunodeficiency virus type 1 group M subtype B, UniProt P04585). Put plainly: HIV-1 Reverse Transcriptase Assay (RNA-dependent DNA polymerase activity, SPA). Type of data set: biochemical. The conditions noted are these: 30° C., 30 min, 10% DMSO. How it is done: RNA-dependent DNA polymerase activity was measured using a biotinylated primer oligonucleotide and tritiated dNTP substrate. Newly synthesized DNA was quantified by capturing the biotinylated primer molecules on streptavidin coated Scintillation Proximity Assay (SPA) beads (Amersham). The sequences of the polymerase assay substrate were: 18 nt DNA primer, 5′-Biotin/GTC CCT GTT CGG GCG CCA-3′; 47 nt RNA template, 5′-GGGUCUCUCUGGUUAGACCACUCUAGCAGUGGCGCCCGAACAGGGAC-3′. The biotinylated DNA primer was obtained from the Integrated DNA Technologies Inc. and the RNA template was synthesized by Dharmacon. The DNA polymerase assay (final volume 50 μl) contained 32 nM biotinylated DNA primer, 64 nM RNA substrate, dGTP, dCTP, dTTP (each at 5 μM), 103 nM [^3H]-dATP (specific activity=[…]), in 45 mM Tris-HCl, pH 8.0, 45 mM NaCl, 2.7 mM Mg(CH3COO)2, 0.045% Triton X-100 w/v, 0.9 mM EDTA. The reactions contained 5 ul of serial compound dilutions in 100% DMSO for IC50 determination and the final concentrations of DMSO were 10%. Reactions were initiated by the addition of 30 μl of the HIV-RT enzyme (final concentrations of 1-3 nM). Protein concentrations were adjusted to provide linear product formation for at least 30 min of incubation. After incubation at 30° C. for 30 min, the reaction was quenched by addition of 50 μl of 200 mM EDTA (pH 8.0) and […] SA-PVT SPA beads (Amersham, RPNQ0009, reconstituted in 20 mM Tris-HCl, pH 8.0, 100 mM EDTA and 1% BSA). The beads were left to settle overnight and the SPA signals were counted in a 96-well top counter-NXT (Packard).

Turning to `Cc1cn(Cc2ccc(Cl)c(Oc3cc(Cl)cc(C#N)c3)c2F)c(=O)[nH]c1=O` [Compound I-17, 3-Chloro-5-[6-chloro-2-fluoro-3-(5-methyl-2,4-dioxo-3,4-dihydro-2H-pyrimidin-1-ylmethyl)-phenoxy]-benzonitrile], the melting point fell in the range of 226 to 227.5 °C. Further, the IC50 against HIV-1 RT worked out at 3.1 nM.
In the same order, the values of `CCc1ccc(Cn2cc(C)c(=O)[nH]c2=O)c(F)c1Oc1cc(Cl)cc(C#N)c1` [Compound I-25, 3-Chloro-5-[6-ethyl-2-fluoro-3-(5-methyl-2,4-dioxo-3,4-dihydro-2H-pyrimidin-1-ylmethyl)-phenoxy]-benzonitrile] are 180.5 to 181.5 °C and 1.8 nM.
In the same order, the values of `Cc1cn(Cc2ccc(Br)c(Oc3cc(C#N)cc(C(F)F)c3)c2F)c(=O)[nH]c1=O` [Compound I-27, 3-[6-Bromo-2-fluoro-3-(5-methyl-2,4-dioxo-3,4-dihydro-2H-pyrimidin-1-ylmethyl)-phenoxy]-5-difluoromethyl-benzonitrile] are 232.3 to 234.8 °C and 3.3 nM.
Regarding `CCc1cn(Cc2ccc(Br)c(Oc3cc(C#N)cc(C#N)c3)c2F)c(=O)[nH]c1=O` [Compound I-10, 5-[6-Bromo-3-(5-ethyl-2,4-dioxo-3,4-dihydro-2H-pyrimidin-1-ylmethyl)-2-fluoro-phenoxy]-isophthalonitrile], the IC50 against HIV-1 RT was found to be 13.5 nM.
Take `N#Cc1cc(Cl)cc(Oc2c(Br)ccc(Cn3cc(Cl)c(=O)[nH]c3=O)c2F)c1` [Compound I-4, 3-[6-Bromo-3-(5-chloro-2,4-dioxo-3,4-dihydro-2H-pyrimidin-1-ylmethyl)-2-fluoro-phenoxy]-5-chloro-benzonitrile]: the melting point lay in the range of 260.8 to 261.7 °C. Besides, 4.1 nM corresponded to half-maximal inhibition against HIV-1 RT (IC50).
For `Cc1cn(Cc2ccc(Br)c(Oc3cc(C#N)cc(C#N)c3)c2F)c(=O)[nH]c1=O` [Compound I-8, 5-[6-Bromo-2-fluoro-3-(5-methyl-2,4-dioxo-3,4-dihydro-2H-pyrimidin-1-ylmethyl)-phenoxy]-isophthalonitrile] the same measures were 235.6 to 236 °C and 4.3 nM.
For `N#Cc1cc(Cl)cc(Oc2c(Br)ccc(CN3CCC(=O)NC3=O)c2F)c1` [Compound I-1, 3-[6-Bromo-3-(2,4-dioxo-tetrahydro-pyrimidin-1-ylmethyl)-2-fluoro-phenoxy]-5-chloro-benzonitrile] the same measures were 161.5 to 163 °C and 28.7 nM.
In the same order, the values of `N#Cc1cc(C#N)cc(Oc2c(Br)ccc(Cn3ccc(=O)[nH]c3=O)c2F)c1` [Compound I-11, 5-[6-Bromo-3-(2,4-dioxo-3,4-dihydro-2H-pyrimidin-1-ylmethyl)-2-fluoro-phenoxy]-isophthalonitrile] are 132 to 133 °C and 22.9 nM.
`CCc1cn(Cc2ccc(Br)c(Oc3cc(Cl)cc(C#N)c3)c2F)c(=O)[nH]c1=O` [Compound I-5, 3-[6-Bromo-3-(5-ethyl-2,4-dioxo-3,4-dihydro-2H-pyrimidin-1-ylmethyl)-2-fluoro-phenoxy]-5-chloro-benzonitrile]: the melting point lay within 224.6 to 225.6 °C. At HIV-1 RT, this molecule came in with an IC50 of 1.6 nM.
In the same order, the values of `N#Cc1cc(Cl)cc(Oc2c(Br)ccc(Cn3cc(O)c(=O)[nH]c3=O)c2F)c1` [Compound I-30, 3-[6-Bromo-2-fluoro-3-(5-hydroxy-2,4-dioxo-3,4-dihydro-2H-pyrimidin-1-ylmethyl)-phenoxy]-5-chloro-benzonitrile] are 238 to 240 °C and 34.5 nM.
For `N#Cc1cc(Cl)cc(Oc2c(Br)ccc(Cn3cc(CO)c(=O)[nH]c3=O)c2F)c1` [Compound I-24, 3-[6-Bromo-2-fluoro-3-(5-hydroxymethyl-2,4-dioxo-3,4-dihydro-2H-pyrimidin-1-ylmethyl)-phenoxy]-5-chloro-benzonitrile] the same measures were 226 to 227 °C and 11.1 nM.
For `N#Cc1cc(Cl)cc(Oc2c(Br)ccc(Cn3cc(C(F)(F)F)c(=O)[nH]c3=O)c2F)c1` [Compound I-7, 3-[6-Bromo-3-(2,4-dioxo-5-trifluoromethyl-3,4-dihydro-2H-pyrimidin-1-ylmethyl)-2-fluoro-phenoxy]-5-chloro-benzonitrile] the same measures were 110 to 112 °C and 6 nM.
Consider `C=CCC1C(=O)NC(=O)N1Cc1ccc(Br)c(Oc2cc(Cl)cc(C#N)c2)c1F` (stereo not drawn) [Compound I-22, 3-[3-(5-Allyl-2,4-dioxo-imidazolidin-1-ylmethyl)-6-bromo-2-fluoro-phenoxy]-5-chloro-benzonitrile], for which the melting point fell in the range of 200 to 201 °C. 1000 nM corresponded to half-maximal inhibition on HIV-1 RT (IC50).
In the same order, the values of `Cn1cc(Cc2ccc(Br)c(Oc3cc(Cl)cc(C#N)c3)c2F)c(=O)[nH]c1=O` [Compound I-31, 3-[6-Bromo-2-fluoro-3-(1-methyl-2,4-dioxo-1,2,3,4-tetrahydro-pyrimidin-5-ylmethyl)-phenoxy]-5-chloro-benzonitrile] are 226 to 227 °C and 5.9 nM.
For `Cc1cn(CCc2ccc(Br)c(Oc3cc(Cl)cc(C#N)c3)c2F)c(=O)[nH]c1=O` [Compound I-14, 3-{6-Bromo-2-fluoro-3-[2-(5-methyl-2,4-dioxo-3,4-dihydro-2H-pyrimidin-1-yl)-ethyl]-phenoxy}-5-chloro-benzonitrile] the same measures were 198 to 200 °C and 7 nM.
For `N#Cc1cc(Cl)cc(Oc2c(Br)ccc(CN3CC(=O)NC3=S)c2F)c1` [Compound I-28, 3-[6-Bromo-2-fluoro-3-(4-oxo-2-thioxo-imidazolidin-1-ylmethyl)-phenoxy]-5-chloro-benzonitrile] the same measures were 172 to 173 °C and 86 nM.
`N#Cc1cc(Cl)cc(Oc2c(Cl)ccc(Cn3cc(Cl)c(=O)[nH]c3=O)c2F)c1` [Compound I-18, 3-Chloro-5-[6-chloro-3-(5-chloro-2,4-dioxo-3,4-dihydro-2H-pyrimidin-1-ylmethyl)-2-fluoro-phenoxy]-benzonitrile]: the melting point was in the range of 267.2 to 268 °C. The same molecule showed an IC50 on HIV-1 RT of 3.7 nM.
For `CC1CN(Cc2ccc(Br)c(Oc3cc(Cl)cc(C#N)c3)c2F)C(=O)NC1=O` (stereo not drawn) [Compound I-29, 3-[6-Bromo-2-fluoro-3-(5-methyl-2,4-dioxo-tetrahydro-pyrimidin-1-ylmethyl)-phenoxy]-5-chloro-benzonitrile] the same measures were 227.8 to 228.6 °C and 85.8 nM.
In the same order, the values of `N#Cc1cc(Cl)cc(Oc2c(Br)ccc(Cn3ccc(=O)[nH]c3=O)c2F)c1` [Compound I-3, 3-[6-Bromo-3-(2,4-dioxo-3,4-dihydro-2H-pyrimidin-1-ylmethyl)-2-fluoro-phenoxy]-5-chloro-benzonitrile] are 229 to 230.5 °C and 3.6 nM.
Take `CCc1ccc(Cn2cc(Cl)c(=O)[nH]c2=O)c(F)c1Oc1cc(Cl)cc(C#N)c1` [Compound I-26, 3-Chloro-5-[3-(5-chloro-2,4-dioxo-3,4-dihydro-2H-pyrimidin-1-ylmethyl)-6-ethyl-2-fluoro-phenoxy]-benzonitrile]: the IC50 on HIV-1 RT is 1.4 nM.
The same measure, in the same setting: under `CN1C(=O)NC(=O)C1Cc1ccc(Br)c(Oc2cc(Cl)cc(C#N)c2)c1F` (stereo not drawn) [Compound I-32, 3-[6-Bromo-2-fluoro-3-(3-methyl-2,5-dioxo-imidazolidin-4-ylmethyl)-phenoxy]-5-chloro-benzonitrile] stands 6.3 nM.
